# What was measured:
# Mus musculus [1] = assay: Number of survivors/ number of animals tested at the dose of 40 mg/Kg, iv; 0/6; type: functional
# Mus musculus [2] = assay: Number of survivors/ number of animals tested at the dose of 80 mg/Kg, ip; 5/6; type: functional
# Mus musculus [3] = assay: Number of survivors/ number of animals tested at the dose of 80 mg/Kg, iv; 0/6; type: functional
# Mus musculus [4] = assay: Number of survivors/ number of animals tested at the dose of 235 mg/Kg, ip; 0/6; type: functional
# Mus musculus [5] = assay: Number of survivors/ number of animals tested at the dose of 235 mg/Kg, iv; 5/6; type: functional
# Mus musculus [6] = assay: Number of survivors/ number of animals tested at the dose of 40 mg/Kg, ip; 0/6; type: functional
# Mus musculus [7] = assay: Number of survivors/ number of animals tested at the dose of 115 mg/Kg, ip; 6/6; type: functional
# Mus musculus [8] = assay: Number of survivors/ number of animals tested at the dose of 115 mg/Kg, iv; 6/6; type: functional
# Mus musculus [9] = assay: Number of survivors/ number of animals tested at the dose of 155 mg/Kg, ip; 6/6; type: functional
# Mus musculus [10] = assay: Number of survivors/ number of animals tested at the dose of 155 mg/Kg, iv; 6/6; type: functional
# Mus musculus [11] = assay: Number of survivors/ number of animals tested at the dose of 195 mg/Kg, ip; 5/6; type: functional
# Mus musculus [12] = assay: Number of survivors/ number of animals tested at the dose of 195 mg/Kg, iv; 5/6; type: functional
# Mus musculus [13] = assay: (§1) Antitumor activity was evaluated against L1210 leukemia, injected intraperitoneally at a dose 40 umol/kg; type: functional
# Mus musculus [14] = assay: Antitumor activity was evaluated against L1210 leukemia, injected intravenously at a dose 40 umol/kg; type: functional
# Mus musculus [15] = assay: Antitumor activity was evaluated against L1210 leukemia, injected intravenously at a dose 80 umol/kg; type: functional
# Mus musculus [16] = assay: Antitumor activity was evaluated against L1210 leukemia, injected intraperitoneally at a dose 295 umol/kg; type: functional
# Mus musculus [17] = assay: Antitumor activity was evaluated against L1210 leukemia, injected intravenously at a dose 235 umol/kg; type: functional
# Mus musculus [18] = assay: Antitumor activity was evaluated against L1210 leukemia, injected intraperitoneally at a dose 115 umol/kg; infinity-50-100%survivals; type: functional, organism-based
# Mus musculus [19] = assay: Antitumor activity was evaluated against L1210 leukemia, injected intraperitoneally at a dose 155 umol/kg; infinity-50-100%survivals; type: functional, organism-based
# Mus musculus [20] = assay: Antitumor activity was evaluated against L1210 leukemia, injected intraperitoneally at a dose 80 umol/kg; infinity-50-100%survivals; type: functional, organism-based
# Mus musculus [21] = assay: Antitumor activity was evaluated against L1210 leukemia, injected intraperitoneally at a dose 195 umol/kg; infinity-50-100%survivals; type: functional, organism-based
# Mus musculus [22] = assay: Antitumor activity was evaluated against L1210 leukemia, injected intravenously at a dose 115 umol/kg; infinity-50-100%survivals; type: functional, organism-based
# Mus musculus [23] = assay: Antitumor activity was evaluated against L1210 leukemia, injected intravenously at a dose 155 umol/kg; infinity-50-100%survivals; type: functional, organism-based
# Mus musculus [24] = assay: Antitumor activity was evaluated against L1210 leukemia, injected intravenously at a dose 195 umol/kg; infinity-50-100%survivals; type: functional, organism-based
# L1210 [25] = assay: Antitumor activity was evaluated against L1210 leukemia, injected intraperitoneally at a dose 120 umol/kg; type: functional, Mus musculus
# L1210 [26] = assay: Antitumor activity was evaluated against L1210 leukemia, injected intraperitoneally at a dose 25 umol/kg; type: functional, Mus musculus
# L1210 [27] = assay: Antitumor activity was evaluated against L1210 leukemia, injected intraperitoneally at a dose 50 umol/kg; infinity-50-100%survivals; type: functional, cell-based; details: Mus musculus
# L1210 [28] = assay: Antitumor activity was evaluated against L1210 leukemia, injected intraperitoneally at a dose 75 umol/kg; infinity-50-100%survivals; type: functional, cell-based; details: Mus musculus
# L1210 [29] = assay: Antitumor activity was evaluated against L1210 leukemia, injected intraperitoneally at a dose 95 umol/kg; infinity-50-100%survivals; type: functional, cell-based; details: Mus musculus
# L1210 [30] = assay: Number of survivors/ number of animals tested at the dose of 95 mg/Kg; 3/6; type: functional, Mus musculus
# L1210 [31] = assay: Number of survivors/ number of animals tested at the dose of 50 mg/Kg; 6/6; type: functional, Mus musculus
# L1210 [32] = assay: Number of survivors/ number of animals tested at the dose of 75 mg/Kg; 6/6; type: functional, Mus musculus
# L1210 [33] = assay: Number of survivors/ number of animals tested at the dose of 25 mg/Kg; 0/6; type: functional, Mus musculus
# L1210 [34] = assay: Number of survivors/ number of animals tested at the dose of 125 mg/Kg; 0/6; type: functional, Mus musculus
# Mus musculus [35] = assay: Antitumor activity was evaluated against L1210 leukemia, injected intravenously at a dose 40-250 umol/kg; type: functional
# Mus musculus [36] = assay: (§2) Number of survivors/ number of animals tested at the dose of 40 mg/Kg, iv; 6/6; type: functional
# Mus musculus [37] = assay: Number of survivors/ number of animals tested at the dose of 60 mg/Kg, iv; 4/6; type: functional
# Mus musculus [38] = assay: (§3) Number of survivors/ number of animals tested at the dose of 20 mg/Kg, iv; 0/6; type: functional
# Mus musculus [39] = assay: Antitumor activity was evaluated against L1210 leukemia, injected intravenously at a dose umol/kg; type: functional
# Mus musculus [40] = assay: Antitumor activity was evaluated against L1210 leukemia, injected intravenously at a dose umol/kg, survivors/6; type: functional
# Mus musculus [41] = assay: Antitumor activity was evaluated against L1210 leukemia, injected intravenously at a dose umol/kg; infinity-50-100%survivals; type: functional, organism-based
# L1210 [42] = assay: Number of survivors/ number of animals tested at the dose of 80 mg/Kg, iv; 1/6; type: functional, Mus musculus
# L1210 [43] = assay: Number of survivors/ number of animals tested at the dose of 60 mg/Kg, iv; 6/6; type: functional, Mus musculus
# L1210 [44] = assay: Number of survivors/ number of animals tested at the dose of 120 mg/Kg, iv; 0/6; type: functional, Mus musculus
# L1210 [45] = assay: as §3; type: functional, Mus musculus
# L1210 [46] = assay: as §2; type: functional, Mus musculus
# Mus musculus [47] = assay: Antitumor activity was evaluated against L1210 leukemia, injected intravenously at a dose 20 umol/kg; type: functional
# Mus musculus [48] = assay: Antitumor activity was evaluated against L1210 leukemia, injected intravenously at a dose 120 umol/kg; type: functional
# L1210 [49] = assay: as §1; type: functional, Mus musculus
# Mus musculus [50] = assay: Number of survivors/ number of animals tested at the dose of 40 mg/Kg; 2/6; type: functional
# Mus musculus [51] = assay: Number of survivors/ number of animals tested at the dose of 80 mg/Kg; 6/6; type: functional
# Mus musculus [52] = assay: Number of survivors/ number of animals tested at the dose of 210 mg/Kg; 0/6; type: functional
# Mus musculus [53] = assay: Number of survivors/ number of animals tested at the dose of 210 mg/Kg; 3/6; type: functional
# Mus musculus [54] = assay: Number of survivors/ number of animals tested at the dose of 125 mg/Kg, iv; 6/6; type: functional
# Mus musculus [55] = assay: Number of survivors/ number of animals tested at the dose of 125 mg/Kg; 6/6; type: functional
# Mus musculus [56] = assay: Number of survivors/ number of animals tested at the dose of 165 mg/Kg; 5/6; type: functional
# Mus musculus [57] = assay: Number of survivors/ number of animals tested at the dose of 165 mg/Kg; 6/6; type: functional
# Mus musculus [58] = assay: Antitumor activity was evaluated against L1210 leukemia, injected intraperitoneally at a dose 210 umol/kg; type: functional
# Mus musculus [59] = assay: Antitumor activity was evaluated against L1210 leukemia, injected intraperitoneally at a dose 125 umol/kg; infinity-50-100%survivals; type: functional, organism-based
# Mus musculus [60] = assay: Antitumor activity was evaluated against L1210 leukemia, injected intraperitoneally at a dose 165 umol/kg; infinity-50-100%survivals; type: functional, organism-based
# Mus musculus [61] = assay: Antitumor activity was evaluated against L1210 leukemia, injected intravenously at a dose 165 umol/kg; infinity-50-100%survivals; type: functional, organism-based
# Mus musculus [62] = assay: Antitumor activity was evaluated against L1210 leukemia, injected intravenously at a dose 210 umol/kg; infinity-50-100%survivals; type: functional, organism-based
# Mus musculus [63] = assay: Antitumor activity was evaluated against L1210 leukemia, injected intravenously at a dose 125 umol/kg; infinity-50-100%survivals; type: functional, organism-based
smiles,measurement,setting,value
CS(=O)(=O)CCN(N=O)C(=O)NCCCl.CS(=O)(=O)CCNC(=O)N(CCCl)N=O [listing 1 of 2 here],Survivors,Mus musculus [1],0
same,Survivors,Mus musculus [2],5
same,Survivors,Mus musculus [3],0
same,Survivors,Mus musculus [4],0
same,Survivors,Mus musculus [5],5
same,Survivors,Mus musculus [6],0
same,Survivors,Mus musculus [7],6
same,Survivors,Mus musculus [8],6
same,Survivors,Mus musculus [9],6
same,Survivors,Mus musculus [10],6
same,Survivors,Mus musculus [11],5
same,Survivors,Mus musculus [12],5
same,T/C x100,Mus musculus [13],190
same,T/C x100,Mus musculus [14],190
same,T/C x100,Mus musculus [15],230
same,T/C x100,Mus musculus [16],410
same,T/C x100,Mus musculus [17],290
CS(=O)(=O)CCN(N=O)C(=O)NCCCl.CS(=O)(=O)CCNC(=O)N(CCCl)N=O [listing 2 of 2 here],T/C x100,Mus musculus [18],infinity-50-100%survivals
same,T/C x100,Mus musculus [19],infinity-50-100%survivals
same,T/C x100,Mus musculus [20],infinity-50-100%survivals
same,T/C x100,Mus musculus [21],infinity-50-100%survivals
same,T/C x100,Mus musculus [22],infinity-50-100%survivals
same,T/C x100,Mus musculus [23],infinity-50-100%survivals
same,T/C x100,Mus musculus [24],infinity-50-100%survivals
O=NN(CCCl)C(=O)NCCSSCCN(N=O)C(=O)NCCCl.O=NN(CCSSCCN(N=O)C(=O)NCCCl)C(=O)NCCCl,T/C x100,L1210 [25],125
same,T/C x100,L1210 [26],250
same,T/C x100,L1210 [27],infinity-50-100%survivals
same,T/C x100,L1210 [28],infinity-50-100%survivals
same,T/C x100,L1210 [29],infinity-50-100%survivals
same,Survivors,L1210 [30],3
same,Survivors,L1210 [31],6
same,Survivors,L1210 [32],6
same,Survivors,L1210 [33],0
same,Survivors,L1210 [34],0
C[S+]([O-])CCN(N=O)C(=O)NCCCl (stereo unspecified),T/C x100,Mus musculus [35],<125
C[S+]([O-])CCNC(=O)N(CCCl)N=O (stereo unspecified),Survivors,Mus musculus [36],6
same,Survivors,Mus musculus [37],4
same,Survivors,Mus musculus [3],0
same,Survivors,Mus musculus [38],0
same,T/C x100,Mus musculus [39],190
same,T/C x100,Mus musculus [40],190
same,T/C x100,Mus musculus [41],infinity-50-100%survivals
CS(=O)(=O)CCNC(=O)N(CCCl)N=O,Survivors,L1210 [42],1
same,Survivors,L1210 [43],6
same,Survivors,L1210 [44],0
same,Survivors,L1210 [45],0
same,Survivors,L1210 [46],6
same,T/C x100,Mus musculus [47],200
same,T/C x100,Mus musculus [15],300
same,T/C x100,Mus musculus [48],190
CS(=O)(=O)CCN(N=O)C(=O)NCCCl,T/C x100,Mus musculus [35],<125
C[S+]([O-])CCN(N=O)C(=O)NCCCl.C[S+]([O-])CCNC(=O)N(CCCl)N=O (stereo unspecified) [listing 1 of 2 here],T/C x100,L1210 [49],300
same,Survivors,Mus musculus [1],0
same,Survivors,Mus musculus [50],2
same,Survivors,Mus musculus [3],0
same,Survivors,Mus musculus [51],6
same,Survivors,Mus musculus [52],0
same,Survivors,Mus musculus [53],3
same,Survivors,Mus musculus [54],6
same,Survivors,Mus musculus [55],6
same,Survivors,Mus musculus [56],5
same,Survivors,Mus musculus [57],6
same,T/C x100,Mus musculus [14],170
same,T/C x100,Mus musculus [15],270
same,T/C x100,Mus musculus [58],295
C[S+]([O-])CCN(N=O)C(=O)NCCCl.C[S+]([O-])CCNC(=O)N(CCCl)N=O (stereo unspecified) [listing 2 of 2 here],T/C x100,Mus musculus [20],infinity-50-100%survivals
same,T/C x100,Mus musculus [59],infinity-50-100%survivals
same,T/C x100,Mus musculus [60],infinity-50-100%survivals
same,T/C x100,Mus musculus [61],infinity-50-100%survivals
same,T/C x100,Mus musculus [62],infinity-50-100%survivals
same,T/C x100,Mus musculus [63],infinity-50-100%survivals
